From patent US11945811B2, “Potassium channel inhibitors” (ACESION PHARMA APS, priority 2021, dated 2024)

The molecules below were run against T1, human SK3 channel (hKCa2.3) (Homo sapiens, UniProt Q9UGI6) (assay: Automated patch clamping (QPatch 16 HT whole-cell recordings)). Settings: HEK-293 cells stably expressing hKCa2.3; currents measured at −80 mV; normalized to N-methyl bicuculline; read-out: IC50 in the Automated patch clamping assay (SK3 channel inhibition).
T1 construct: expressed in transfected cells
Assay type: cell-based
Protocol: Automated whole cell patch-clamp recordings were performed using a QPatch 16 HT system and single-hole Qplates (Sophion, Denmark) on HEK-293 cells stably expressing the human SK3 channel (hKCa2.3). Cells were cultured and prepared for experiments using normal cell culturing procedures. A total of 4-5 million cells were used per experiment. The Qpatch automatically generates giga sealing, whole-cell formation, compound application and recording of current. hKCa2.3 currents were recorded in symmetrical K^+ solutions. The intracellular/pipette solution contained 154 mM KCl, 10 mM HEPES and 10 mM EGTA. CaCl2 is added to give calculated free concentrations of Ca^2+ of 0.4 μM and MgCl2 is added to give a free concentration of 1 mM. In order to maintain a total [K^+] of 156 mM (corresponding to the concentration in the extracellular ringer) a fixed amount of KOH (15 mM) is added, thereafter pH is adjusted with HCl to pH=7.2. Expected osmolarity: 275 mOsm. Sucrose was added to a final osmolarity around 295 mosm. The extracellular solution consisted of (in mM): CaCl2 0.1, MgCl2 3, KCl 150, HEPES 10 and glucose 10, pH=7.4 adjusted with KOH. Osmolarity between 285-295 mosm. The cells were held at 0 mV and hKCa2.3 currents were elicited by a linear voltage ramp from −80 mV to +80 mV (200 ms in duration) applied every 5th second.
The compound application protocol consisted of 12 recording periods lasting 200 s: 1) Baseline recordings in extracellular solution; 2) Application of the positive control N-methyl bicuculline (100 μM), which is characterized by full efficacy, fast on- and off-rate; 3-4) Wash-out; 5-10) Increasing concentrations of test compound to establish an IC50 value; 11-12) Wash-out; 13) positive control with compound NS8593 (N-[(1R)-1,2,3,4-tetrahydro-1-naphthalenyl]-1H-benzimidazol-2-amine) (1 μM) or with N-methyl bicuculline (100 μM). Data were sampled at 10 kHz, 4th order Bessel filter, cut-off frequency 3 kHz. Currents were compensated for run-down. Potency was quantified as the concentration needed to inhibit half of the SK channel activity and reported as an IC50 value.
All effects of compounds of the present invention as tested were normalized to the observed inhibitory effect of N-methyl bicuculline. Currents were measured at −80 mV.

Compound | IC50 [µM]
Cc1coc(=N)n1Cc1cccc2[nH]c(NC(C)(CO)c3cccc(C(F)(F)F)c3)nc12 (single isomer, unassigned; (-)) [Example 23a, (−)-2-({4-[(2-imino-4-methyl-2,3-dihydro-1,3-oxazol-3-yl)methyl]-1H-1,3-benzodiazol-2-yl}amino)-2-[3-(trifluoromethyl)phenyl]propan-1-ol] | < 1
Cc1cn(Cc2cccc3[nH]c(NC(C)(CO)c4cccc(OC(F)(F)F)c4)nc23)c(=N)o1 (single isomer, unassigned; (-)) [Example 30a, (−)-2-({4-[(2-imino-5-methyl-2,3-dihydro-1,3-oxazol-3-yl)methyl]-1H-1,3-benzodiazol-2-yl}amino)-2-[3-(trifluoromethoxy)-phenyl]propan-1-ol] | < 1
CC(CO)(Nc1nc2c(Cn3ccsc3=N)cccc2[nH]1)c1ccc(F)c(Cl)c1 (single isomer, unassigned; (-)) [Example 32a, (−)-2-(3-chloro-4-fluorophenyl)-2-({4-[(2-imino-2,3-dihydro-1,3-thiazol-3-yl)methyl]-1H-1,3-benzodiazol-2-yl}amino)propan-1-ol] | < 1
CC(CO)(Nc1nc2c(CNc3ncco3)cccc2[nH]1)c1ccc(Cl)c(F)c1 (single isomer, unassigned; (-)) [Example 40a, (−)-2-(4-chloro-3-fluorophenyl)-2-[(4-{[(1,3-oxazol-2-yl)amino]methyl}-1H-1,3-benzodiazol-2-yl)amino]propan-1-ol] | < 30
CC(CO)(Nc1nc2c(Cn3ccoc3=N)cccc2[nH]1)c1cccc(Cl)c1F (single isomer, unassigned; (-)) [Example 41a, (−)-2-(3-chloro-2-fluorophenyl)-2-({4-[(2-imino-2,3-dihydro-1,3-oxazol-3-yl)methyl]-1H-1,3-benzodiazol-2-yl}amino)propan-1-ol] | < 1
CC(CO)(Nc1nc2c(CNc3ccon3)cccc2[nH]1)c1cc(F)cc(Cl)c1 (single isomer, unassigned; (-)) [Example 46a, (−)-2-(3-chloro-5-fluorophenyl)-2-[(4-{[(1,2-oxazol-3-yl)amino]methyl}-1H-1,3-benzodiazol-2-yl)amino]propan-1-ol] | < 30
N=c1occn1Cc1cccc2[nH]c(NC3(c4cccc(Cl)c4)CC3)nc12 [Example 1, N-[1-(3-chlorophenyl)cyclopropyl]-4-[(2-imino-2,3-dihydro-1,3-oxazol-3-yl)methyl]-1H-1,3-benzodiazol-2-amine] | < 30
CC(C)(Nc1nc2c(Cn3ccoc3=N)cccc2[nH]1)c1cccc(Cl)c1 [Example 2, N-[2-(3-chlorophenyl)propan-2-yl]-4-[(2-imino-2,3-dihydro-1,3-oxazol-3-yl)methyl]-1H-1,3-benzodiazol-2-amine] | < 1
CC(CO)(Nc1nc2c(Cn3ccoc3=N)cccc2[nH]1)c1cccc(Cl)c1 (centres unmarked) [Example 3, 2-(3-chlorophenyl)-2-({4-[(2-imino-2,3-dihydro-1,3-oxazol-3-yl)methyl]-1H-1,3-benzodiazol-2-yl}amino)propan-1-ol] | < 1
CC(Nc1nc2c(Cn3ccoc3=N)cccc2[nH]1)c1cccc(C(F)(F)F)c1 (centres unmarked) [Example 4, 4-[(2-imino-2,3-dihydro-1,3-oxazol-3-yl)methyl]-N-{1-[3-(trifluoromethyl)phenyl]ethyl}-1H-1,3-benzodiazol-2-amine] | < 1
Cc1coc(=N)n1Cc1cccc2[nH]c(NC(C)(CO)c3cccc(Cl)c3)nc12 (centres unmarked) [Example 5, 2-(3-chlorophenyl)-2-({4-[(2-imino-4-methyl-2,3-dihydro-1,3-oxazol-3-yl)methyl]-1H-1,3-benzodiazol-2-yl}amino)propan-1-ol] | < 1
COCC(C)(Nc1nc2c(Cn3ccoc3=N)cccc2[nH]1)c1cccc(Cl)c1 (centres unmarked) [Example 6, N-[2-(3-chlorophenyl)-1-methoxypropan-2-yl]-4-[(2-imino-2,3-dihydro-1,3-oxazol-3-yl)methyl]-1H-1,3-benzodiazol-2-amine] | < 30
CC(C)(Nc1nc2c(Cn3ccoc3=N)cccc2[nH]1)c1cccc(C(F)(F)F)c1 [Example 7, 4-[(2-imino-2,3-dihydro-1,3-oxazol-3-yl)methyl]-N-{2-[3-(trifluoromethyl)phenyl]propan-2-yl}-1H-1,3-benzodiazol-2-amine] | < 1
CC(CO)(Nc1nc2c(Cn3ccoc3=N)cccc2[nH]1)c1ccc(F)c(Cl)c1 (centres unmarked) [Example 8, 2-(3-chloro-4-fluorophenyl)-2-({4-[(2-imino-2,3-dihydro-1,3-oxazol-3-yl)methyl]-1H-1,3-benzodiazol-2-yl}amino)propan-1-ol] | < 1
CC(CO)(Nc1nc2c(CNc3ccon3)cccc2[nH]1)c1ccc(F)c(Cl)c1 (centres unmarked) [Example 9, 2-(3-chloro-4-fluorophenyl)-2-[(4-{[(1,2-oxazol-3-yl)amino]methyl}-1H-1,3-benzodiazol-2-yl)amino]propan-1-ol] | < 1
COCC(C)(Nc1nc2c(Cn3c(C)coc3=N)cccc2[nH]1)c1cccc(Cl)c1 (centres unmarked) [Example 10, N-[2-(3-chlorophenyl)-1-methoxypropan-2-yl]-4-[(2-imino-4-methyl-2,3-dihydro-1,3-oxazol-3-yl)methyl]-1H-1,3-benzodiazol-2-amine] | < 30
CC(CO)(Nc1nc2c(CNc3ccncn3)cccc2[nH]1)c1ccc(F)c(Cl)c1 (centres unmarked) [Example 11, 2-(3-chloro-4-fluorophenyl)-2-[(4-{[(pyrimidin-4-yl)amino]methyl}-1H-1,3-benzodiazol-2-yl)amino]propan-1-ol] | < 30
Cc1cc(NCc2cccc3[nH]c(NC(C)(CO)c4ccc(F)c(Cl)c4)nc23)no1 (centres unmarked) [Example 12, 2-(3-chloro-4-fluorophenyl)-2-[(4-{[(5-methyl-1,2-oxazol-3-yl)amino]methyl}-1H-1,3-benzodiazol-2-yl)amino]propan-1-ol] | < 1
Cc1coc(=N)n1Cc1cccc2[nH]c(NC(C)(CO)c3ccc(F)c(Cl)c3)nc12 (centres unmarked) [Example 13, 2-(3-chloro-4-fluorophenyl)-2-({4-[(2-imino-4-methyl-2,3-dihydro-1,3-oxazol-3-yl)methyl]-1H-1,3-benzodiazol-2-yl}amino)propan-1-ol] | < 1
COCC(C)(Nc1nc2c(Cn3ccoc3=N)cccc2[nH]1)c1ccc(F)c(Cl)c1 (centres unmarked) [Example 14, N-[2-(3-chloro-4-fluorophenyl)-1-methoxypropan-2-yl]-4-[(2-imino-2,3-dihydro-1,3-oxazol-3-yl)methyl]-1H-1,3-benzodiazol-2-amine] | < 30
Cc1nc(NCc2cccc3[nH]c(NC(C)(CO)c4ccc(F)c(Cl)c4)nc23)no1 (centres unmarked) [Example 15, 2-(3-chloro-4-fluorophenyl)-2-[(4-{[(5-methyl-1,2,4-oxadiazol-3-yl)amino]methyl}-1H-1,3-benzodiazol-2-yl)amino]propan-1-ol] | < 30
Cc1nnc(NCc2cccc3[nH]c(NC(C)(CO)c4ccc(F)c(Cl)c4)nc23)o1 (centres unmarked) [Example 16, 2-(3-chloro-4-fluorophenyl)-2-((4-(((5-methyl-1,3,4-oxadiazol-2-yl)amino)methyl)-1H-benzo[d]imidazol-2-yl)amino) propan-1-ol] | < 30
Cc1noc(NCc2cccc3[nH]c(NC(C)(CO)c4ccc(F)c(Cl)c4)nc23)n1 (centres unmarked) [Example 17, 2-(3-chloro-4-fluorophenyl)-2-[(4-{[(3-methyl-1,2,4-oxadiazol-5-yl)amino]methyl}-1H-1,3-benzodiazol-2-yl)amino]propan-1-ol] | < 30
